Results taken from patent publication EP4285989A1 (priority 2021, dated 2022).

Assays:
Assay type in all cases: cell-based
[1] = test system: Clostridium butyricum M-II588; settings: 1 w/v% carbohydrate, anaerobic, 37°C; for hydrogen generation (hydrogen production amount): 24 hours, calculated from increased amount of gas × hydrogen concentration (FIG. 6); for increased amount of gas: preculture 5 v/v%, 24 hours (FIG. 5)
[2] = test system: Clostridium butyricum M-II588; settings: 1 w/v% carbohydrate, sugar-free medium, anaerobic, 37°C, 20 hours; compared to other carbohydrates (FIG. 1)
[3] = test system: Staphylococcus aureus IFO 12732; assay: Anti-bacterial action: Staphylococcus aureus count in (co-)culture, dilution plate technique; settings: 20 hours, 37°C, anaerobic; 0.5 w/v% α-CD; butyric acid bacteria 9.4×10^6 CFU/mL; S. aureus 7.5×10^2 CFU/mL (FIG. 4)
Description: Culture of Staphylococcus aureus alone, Staphylococcus aureus and 0.5 w/v% α-CD in coexistence, Staphylococcus aureus and butyric acid bacteria in coexistence, or Staphylococcus aureus and butyric acid bacteria in coexistence with 0.5 w/v% α-CD added was performed at 37°C under an anaerobic condition, and the number of Staphylococcus aureus was counted 20 hours after the start of culture. The amount of Staphylococcus aureus added was 7.5×10^2 CFU/mL as the final concentration, and the amount of butyric acid bacteria added was 9.4×10^6 CFU/mL as the final concentration. The number of Staphylococcus aureus was measured by the dilution plate technique, that is, spreading a moderately diluted culture solution on an agar medium, culturing it at 37°C under an aerobic condition, and counting the number of colonies formed. The test results are shown as mean ± standard error of three samples.

[4] = test system: Clostridium butyricum M-II588; settings: 1 w/v% carbohydrate, anaerobic, 37°C, 20 hours

Row | Compound | hydrogen generation (hydrogen production amount) [1] | increased amount of gas [1] | proliferation of butyric acid bacteria (turbidity change (ΔOD) at 660 nm) [2] | proliferation of Staphylococcus aureus (number of Staphylococcus aureus) [3] | production of butyric acid ([4]; compared to other carbohydrates (FIG. 2)) | production of acetic acid ([4]; compared to other carbohydrates (FIG. 3))
1 | OC[C@H]1O[C@@H](O[C@H]2[C@H](O)[C@@H](O)[C@@H](O[C@]3(CO)O[C@H](CO)[C@@H](O)[C@@H]3O)O[C@@H]2CO)[C@H](O)[C@@H](O)[C@H]1O [LS, Lactosucrose, reference compound] | very little | very little |  |  |  | 
2 | α-cyclodextrin [α-CD] | hydrogen was generated | significantly increased | significantly promoted | almost no proliferation inhibiting effect | significantly promoted | significantly promoted
